Measured values published in PubChem BioAssay AID1963441 (Molecular Pharmacology Branch, DTP, NCI, 2024).

Tested on: NCI-H1876 complex spheroid growth, % test/control
Experiment: Anticancer human tumor NCI-H1876 cell line growth inhibition [Asc];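 further: compound exposure lasted 7 days starting three days after seeding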;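 on viability, T/C: 100% = DMSO vehicle control wells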
Conditions: for IC50: curve of first compound; for viability, T/C: stronger effect = lower value
Method in brief: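 Concentration series start at each agent's clinical Cmax, or at 10 microM when none is established, and drop in half-log steps; agents are applied alone or together to complex spheroids built with HUVEC and hMSC.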

[1] = second compound 0.00316 µM, first compound 0.0316 µM
[2] = second compound 0.00316 µM, first compound 0.1 µM
[3] = second compound 0.00316 µM, first compound 0.316 µM
[4] = second compound 0.00316 µM, first compound 1 µM
[5] = second compound 0.01 µM, first compound 0.0316 µM
[6] = second compound 0.01 µM, first compound 0.1 µM
[7] = second compound 0.01 µM, first compound 0.316 µM
[8] = second compound 0.01 µM, first compound 1 µM
[9] = second compound 0.0316 µM, first compound 0.0316 µM
[10] = second compound 0.0316 µM, first compound 0.1 µM
[11] = second compound 0.0316 µM, first compound 0.316 µM
[12] = second compound 0.0316 µM, first compound 1 µM
[13] = second compound 0.1 µM, first compound 0.0316 µM
[14] = second compound 0.1 µM, first compound 0.1 µM
[15] = second compound 0.1 µM, first compound 0.316 µM
[16] = second compound 0.1 µM, first compound 1 µM
[17] = second compound 0.316 µM, first compound 0.0316 µM
[18] = second compound 0.316 µM, first compound 0.1 µM
[19] = second compound 0.316 µM, first compound 0.316 µM
[20] = second compound 0.316 µM, first compound 1 µM
[21] = second compound 1 µM, first compound 0.0316 µM
[22] = second compound 1 µM, first compound 0.1 µM
[23] = second compound 1 µM, first compound 0.316 µM
[24] = second compound 1 µM, first compound 1 µM
[25] = second compound 0.0316 µM, first compound 3.16 µM
[26] = second compound 0.0316 µM, first compound 10 µM
[27] = second compound 0.1 µM, first compound 3.16 µM
[28] = second compound 0.1 µM, first compound 10 µM
[29] = second compound 0.316 µM, first compound 3.16 µM
[30] = second compound 0.316 µM, first compound 10 µM
[31] = second compound 1 µM, first compound 3.16 µM
[32] = second compound 1 µM, first compound 10 µM

O=C(c1ccc(F)c(F)c1Nc1ccc(I)cc1F)N1CC(O)([C@@H]2CCCCN2)C1 + CNC(C)C(=O)NC1CN(S(=O)(=O)c2cccc(S(=O)(=O)N3CCC4CCC(C(=O)NC(c5ccccc5)c5ccccc5)N4C(=O)C(NC(=O)C(C)NC)C3)c2)CCC2CCC(C(=O)NC(c3ccccc3)c3ccccc3)N2C1=O
IC50 (second compound 0.00316 µM): > 1 µM
IC50 (second compound 0.01 µM): > 1 µM
IC50 (second compound 0.0316 µM): > 1 µM
IC50 (second compound 0.1 µM): > 1 µM
IC50 (second compound 0.316 µM): > 1 µM
IC50 (second compound 1 µM): > 1 µM
viability, T/C (second compound 0.00316 µM, first compound 0.00316 µM): 109%
viability, T/C (second compound 0.00316 µM, first compound 0.01 µM): 87.3%
viability, T/C [1]: 114%
viability, T/C [2]: 80.5%
viability, T/C [3]: 80.5%
viability, T/C [4]: 70.6%
viability, T/C (second compound 0.01 µM, first compound 0.00316 µM): 110%
viability, T/C (second compound 0.01 µM, first compound 0.01 µM): 93.6%
viability, T/C [5]: 96.2%
viability, T/C [6]: 82.3%
viability, T/C [7]: 90.8%
viability, T/C [8]: 81.7%
viability, T/C (second compound 0.0316 µM, first compound 0.00316 µM): 98.5%
viability, T/C (second compound 0.0316 µM, first compound 0.01 µM): 90.3%
viability, T/C [9]: 102%
viability, T/C [10]: 87.3%
viability, T/C [11]: 85.5%
viability, T/C [12]: 83.2%
viability, T/C (second compound 0.1 µM, first compound 0.00316 µM): 106%
viability, T/C (second compound 0.1 µM, first compound 0.01 µM): 103%
viability, T/C [13]: 96.3%
viability, T/C [14]: 89.8%
viability, T/C [15]: 86.3%
viability, T/C [16]: 90.5%
viability, T/C (second compound 0.316 µM, first compound 0.00316 µM): 106%
viability, T/C (second compound 0.316 µM, first compound 0.01 µM): 90.1%
viability, T/C [17]: 89.9%
viability, T/C [18]: 96.9%
viability, T/C [19]: 97%
viability, T/C [20]: 72.3%
viability, T/C (second compound 1 µM, first compound 0.00316 µM): 107%
viability, T/C (second compound 1 µM, first compound 0.01 µM): 93.7%
viability, T/C [21]: 99.2%
viability, T/C [22]: 97.4%
viability, T/C [23]: 88%
viability, T/C [24]: 69.8%

C=C(F)C(=O)N1CCN(c2nc(OCC3CCCN3C)nc3c2CCN(c2cccc4cccc(Cl)c24)C3)CC1CC#N (stereo unspecified) + CNC(C)C(=O)NC1CN(S(=O)(=O)c2cccc(S(=O)(=O)N3CCC4CCC(C(=O)NC(c5ccccc5)c5ccccc5)N4C(=O)C(NC(=O)C(C)NC)C3)c2)CCC2CCC(C(=O)NC(c3ccccc3)c3ccccc3)N2C1=O
IC50 (second compound 0.00316 µM): 5.58 µM
IC50 (second compound 0.01 µM): 5.6 µM
IC50 (second compound 0.0316 µM): 5.59 µM
IC50 (second compound 0.1 µM): 5.66 µM
IC50 (second compound 0.316 µM): 5.73 µM
IC50 (second compound 1 µM): 5.46 µM
viability, T/C [1]: 96.9%
viability, T/C [2]: 97.3%
viability, T/C [3]: 110%
viability, T/C [4]: 89.3%
viability, T/C (second compound 0.00316 µM, first compound 3.16 µM): 99%
viability, T/C (second compound 0.00316 µM, first compound 10 µM): 0.33%
viability, T/C [5]: 104%
viability, T/C [6]: 96.2%
viability, T/C [7]: 103%
viability, T/C [8]: 103%
viability, T/C (second compound 0.01 µM, first compound 3.16 µM): 98.4%
viability, T/C (second compound 0.01 µM, first compound 10 µM): 1.04%
viability, T/C [9]: 106%
viability, T/C [10]: 91.5%
viability, T/C [11]: 98.2%
viability, T/C [12]: 95.2%
viability, T/C [25]: 103%
viability, T/C [26]: 0.33%
viability, T/C [13]: 98.2%
viability, T/C [14]: 95.4%
viability, T/C [15]: 102%
viability, T/C [16]: 115%
viability, T/C [27]: 100%
viability, T/C [28]: 0.52%
viability, T/C [17]: 106%
viability, T/C [18]: 98.7%
viability, T/C [19]: 107%
viability, T/C [20]: 96.3%
viability, T/C [29]: 108%
viability, T/C [30]: 0.32%
viability, T/C [21]: 96.2%
viability, T/C [22]: 85.5%
viability, T/C [23]: 92.1%
viability, T/C [24]: 102%
viability, T/C [31]: 97.2%
viability, T/C [32]: 0.37%

C=C(F)C(=O)N1CCN(c2nc(OCC3CCCN3C)nc3c2CCN(c2cccc4cccc(Cl)c24)C3)CC1CC#N (stereo unspecified) + Cc1c(S(C)(=O)=O)c(-c2cc(F)cc(N3CCN(c4ccc(NS(=O)(=O)c5ccc(NC(CCN6CCC(C(=O)OCCCP(=O)(O)O)CC6)CSc6ccccc6)c(S(=O)(=O)C(F)(F)F)c5)cc4)CC3)c2)c(-c2ccc(Cl)cc2)n1C(C)C
IC50 (second compound 0.0316 µM): 5.7 µM
IC50 (second compound 0.1 µM): 5.38 µM
IC50 (second compound 0.316 µM): 5.65 µM
IC50 (second compound 1 µM): 5.54 µM
IC50 (second compound 3.16 µM): 5.15 µM
IC50 (second compound 10 µM): 5.43 µM
viability, T/C [9]: 96.7%
viability, T/C [10]: 97.8%
viability, T/C [11]: 102%
viability, T/C [12]: 90.5%
viability, T/C [25]: 97.5%
viability, T/C [26]: 5.25%
viability, T/C [13]: 83.6%
viability, T/C [14]: 86.1%
viability, T/C [15]: 91.9%
viability, T/C [16]: 94%
viability, T/C [27]: 98.1%
viability, T/C [28]: 2.68%
viability, T/C [17]: 104%
viability, T/C [18]: 94.9%
viability, T/C [19]: 96.5%
viability, T/C [20]: 98.8%
viability, T/C [29]: 102%
viability, T/C [30]: 1.38%
viability, T/C [21]: 91.5%
viability, T/C [22]: 97.1%
viability, T/C [23]: 94.1%
viability, T/C [24]: 92%
viability, T/C [31]: 99.3%
viability, T/C [32]: 2.82%
viability, T/C (second compound 3.16 µM, first compound 0.0316 µM): 90.6%
viability, T/C (second compound 3.16 µM, first compound 0.1 µM): 93.6%
viability, T/C (second compound 3.16 µM, first compound 0.316 µM): 97.8%
viability, T/C (second compound 3.16 µM, first compound 1 µM): 88.5%
viability, T/C (second compound 3.16 µM, first compound 3.16 µM): 86.6%
viability, T/C (second compound 3.16 µM, first compound 10 µM): 0.42%
viability, T/C (second compound 10 µM, first compound 0.0316 µM): 95.7%
viability, T/C (second compound 10 µM, first compound 0.1 µM): 103%
viability, T/C (second compound 10 µM, first compound 0.316 µM): 81.9%
viability, T/C (second compound 10 µM, first compound 1 µM): 91.3%
viability, T/C (second compound 10 µM, first compound 3.16 µM): 95%
viability, T/C (second compound 10 µM, first compound 10 µM): 1.21%
